Experimental findings from patent US20130035326A1 (AMBIT BIOSCIENCES CORPORATION, priority 2009, published 2013) are described below.

The target in assay [1] is T1, FLT3 kinase (Homo sapiens, UniProt P36888).
T1 construct: made in house; host or cells: T7 phage display or HEK-293 cells
T1 sequence (P36888 27-993): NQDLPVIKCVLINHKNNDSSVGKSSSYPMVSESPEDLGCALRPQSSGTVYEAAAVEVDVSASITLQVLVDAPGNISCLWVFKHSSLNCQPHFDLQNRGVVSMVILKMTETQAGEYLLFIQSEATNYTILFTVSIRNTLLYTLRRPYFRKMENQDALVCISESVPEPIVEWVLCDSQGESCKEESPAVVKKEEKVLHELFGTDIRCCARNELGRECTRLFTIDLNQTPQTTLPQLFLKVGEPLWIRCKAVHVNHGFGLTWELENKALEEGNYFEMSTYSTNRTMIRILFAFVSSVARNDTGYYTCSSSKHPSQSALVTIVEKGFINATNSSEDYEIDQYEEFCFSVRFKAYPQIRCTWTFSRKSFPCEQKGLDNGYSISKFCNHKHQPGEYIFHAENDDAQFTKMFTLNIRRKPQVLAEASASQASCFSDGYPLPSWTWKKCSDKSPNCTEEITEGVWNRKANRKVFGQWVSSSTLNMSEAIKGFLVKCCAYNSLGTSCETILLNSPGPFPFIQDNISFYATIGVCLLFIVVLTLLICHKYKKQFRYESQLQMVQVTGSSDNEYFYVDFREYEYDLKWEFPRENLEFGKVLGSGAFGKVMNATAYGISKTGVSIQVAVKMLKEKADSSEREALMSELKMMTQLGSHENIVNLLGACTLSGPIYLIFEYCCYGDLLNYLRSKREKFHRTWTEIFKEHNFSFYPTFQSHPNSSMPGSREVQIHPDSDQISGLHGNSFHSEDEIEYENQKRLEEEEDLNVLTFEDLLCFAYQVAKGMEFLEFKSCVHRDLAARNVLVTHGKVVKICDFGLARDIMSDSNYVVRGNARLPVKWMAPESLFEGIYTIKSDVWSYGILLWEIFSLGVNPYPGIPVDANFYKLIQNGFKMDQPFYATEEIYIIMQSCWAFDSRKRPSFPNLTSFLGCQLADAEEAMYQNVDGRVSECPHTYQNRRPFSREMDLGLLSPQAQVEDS
Briefly: Competition binding assay, FLT3 Kd. The method, boiled down:
(§1)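 Kinases, either T7 phage fusions or HEK-293-expressed and DNA-tagged, competed for immobilised biotinylated affinity ligand against test compound, 1 h at RT in binding buffer with 6 mM DTT. Bound kinase eluted with 0.5 μM free ligand and quantified by qPCR; Kd from 11-point threefold dilutions.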

Assay [2] deals with T2, KIT kinase (Homo sapiens, UniProt P10721).
T2 construct: made in house; host or cells: T7 phage display or HEK-293 cells
T2 sequence (P10721 26-976): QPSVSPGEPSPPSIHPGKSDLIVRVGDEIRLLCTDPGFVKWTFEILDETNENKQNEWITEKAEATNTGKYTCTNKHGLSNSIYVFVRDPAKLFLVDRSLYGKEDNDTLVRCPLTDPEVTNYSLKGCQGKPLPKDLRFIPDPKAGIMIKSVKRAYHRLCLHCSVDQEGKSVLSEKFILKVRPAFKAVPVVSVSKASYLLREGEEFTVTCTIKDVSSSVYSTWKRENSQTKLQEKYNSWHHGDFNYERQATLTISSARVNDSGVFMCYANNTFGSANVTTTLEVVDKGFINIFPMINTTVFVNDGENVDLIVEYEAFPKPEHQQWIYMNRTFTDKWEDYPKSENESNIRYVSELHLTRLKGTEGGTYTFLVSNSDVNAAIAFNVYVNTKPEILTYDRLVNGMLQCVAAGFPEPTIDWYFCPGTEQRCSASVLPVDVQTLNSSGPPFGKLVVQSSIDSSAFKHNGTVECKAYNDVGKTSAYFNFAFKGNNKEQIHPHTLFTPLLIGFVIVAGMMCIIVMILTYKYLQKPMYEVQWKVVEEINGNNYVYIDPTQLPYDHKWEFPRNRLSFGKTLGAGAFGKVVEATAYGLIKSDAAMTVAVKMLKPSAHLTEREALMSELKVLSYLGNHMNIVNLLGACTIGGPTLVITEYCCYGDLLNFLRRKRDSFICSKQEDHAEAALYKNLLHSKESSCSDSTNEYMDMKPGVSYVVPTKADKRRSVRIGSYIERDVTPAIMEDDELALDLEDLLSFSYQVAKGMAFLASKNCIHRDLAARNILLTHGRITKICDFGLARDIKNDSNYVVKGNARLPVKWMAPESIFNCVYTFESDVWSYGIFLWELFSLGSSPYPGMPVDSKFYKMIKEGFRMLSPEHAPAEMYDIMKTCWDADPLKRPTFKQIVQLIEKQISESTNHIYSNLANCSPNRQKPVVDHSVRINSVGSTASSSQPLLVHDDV
Briefly: Competition binding assay, KIT Kd. The method, boiled down: as §1

Assay [3] addresses T3, CSF-1R kinase (Homo sapiens, UniProt P07333).
T3 construct: made in house; host or cells: T7 phage display or HEK-293 cells
Briefly: Competition binding assay, CSF-1R Kd. The method, boiled down:
as §1

Assay [4] relates to MV4-11 cells. Briefly: MV4-11 cell proliferation assay (Alamar Blue). The format is cell-based. To be noted: Homo sapiens, MV4-11, 72 h, 3 days incubation. The method, boiled down: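 Viability readout: Alamar Blue fluorescence, ex 560/em 590 nm, 3 h after reagent addition, after 3-day exposure of 64,000 MV4-11 cells per well to a 9-point half-log compound series in 0.5% FBS Iscove's. IC50 from duplicate averages, as 50% proliferation inhibition relative to negative control.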
A general note: Alamar Blue is a resazurin reagent that responds to reducing activity.

The target in assay [5] is kinase panel containing either 359 or 386 distinct kinases. Briefly: Selectivity score S10 from competition binding against a panel of kinases. To be noted: compounds at 10 μM; panel of 386 distinct kinases. The method, boiled down:
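Compounds were tested at 10 μM in competition binding against T7 phage-fused or HEK-293-expressed DNA-tagged kinases with immobilized affinity ligands, 1 h at room temperature. Bound kinase was quantified by qPCR as percent of DMSO control; S10 is the fraction of distinct kinases (mutants excluded) with POC below 10.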

T3 sequence (P07333 20-972): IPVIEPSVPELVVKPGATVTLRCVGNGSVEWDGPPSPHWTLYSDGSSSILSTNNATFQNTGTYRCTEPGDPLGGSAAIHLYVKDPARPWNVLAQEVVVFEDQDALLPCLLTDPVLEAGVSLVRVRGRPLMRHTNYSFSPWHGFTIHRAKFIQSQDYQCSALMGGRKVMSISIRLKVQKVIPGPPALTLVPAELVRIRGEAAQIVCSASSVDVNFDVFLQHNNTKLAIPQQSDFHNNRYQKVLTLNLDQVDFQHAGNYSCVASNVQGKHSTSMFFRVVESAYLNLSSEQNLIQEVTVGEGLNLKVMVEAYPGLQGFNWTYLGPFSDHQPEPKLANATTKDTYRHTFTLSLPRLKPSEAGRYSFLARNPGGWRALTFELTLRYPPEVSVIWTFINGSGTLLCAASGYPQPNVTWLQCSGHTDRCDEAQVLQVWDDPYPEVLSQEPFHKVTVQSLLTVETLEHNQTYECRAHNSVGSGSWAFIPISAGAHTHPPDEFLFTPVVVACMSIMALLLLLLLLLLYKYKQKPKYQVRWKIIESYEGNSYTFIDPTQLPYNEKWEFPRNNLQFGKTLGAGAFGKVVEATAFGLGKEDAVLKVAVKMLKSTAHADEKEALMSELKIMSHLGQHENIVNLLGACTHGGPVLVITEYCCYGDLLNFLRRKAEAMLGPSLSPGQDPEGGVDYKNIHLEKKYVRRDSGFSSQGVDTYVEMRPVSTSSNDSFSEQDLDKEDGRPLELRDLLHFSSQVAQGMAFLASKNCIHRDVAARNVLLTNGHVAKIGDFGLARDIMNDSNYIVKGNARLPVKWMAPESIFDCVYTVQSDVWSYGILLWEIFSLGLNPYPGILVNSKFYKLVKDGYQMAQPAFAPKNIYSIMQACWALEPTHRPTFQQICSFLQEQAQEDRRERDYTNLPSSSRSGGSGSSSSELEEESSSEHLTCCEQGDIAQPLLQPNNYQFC

As to `Cc1nc(N)cnc1-c1ccc(CC(=O)Nc2cc(C(C)(C)C)on2)cc1` [Example 165], the Kd – broadly, the concentration at which binding is half-saturated – in assay [1] is no more than 1 nM; in assay [2], 1 to 10 nM; in assay [3], 10 to 100 nM. In assay [4], the IC50 (as a rule, the concentration needed to halve the response being measured) was in the range of 10 to 100 nM. In addition, in assay [5], the “Kinase specificty: S(10)-386 panel” value is on record as “A (A≦0.1)”.

On to `CC(C)(C)c1cc(NC(=O)Cc2ccc(-c3ccc(N)nc3C#N)cc2)no1` [Example 166], for which the Kd was no more than 1 nM in assay [1], 1 to 10 nM in assay [2] and 10 to 100 nM in assay [3]. In assay [4], this molecule returned an IC50 of 10 to 100 nM. Moreover, in assay [5], the “Kinase specificty: S(10)-386 panel” value is on record as “A (A≦0.1)”.

Turning to `Nc1ccc(-c2ccc(CC(=O)Nc3cc(C4(C(F)(F)F)CCC4)on3)cc2)c(F)n1` [Example 167], the equilibrium dissociation constant (Kd) was no more than 1 nM in assay [1], 1 to 10 nM in assay [2] and no more than 10 nM in assay [3]. In assay [4], this molecule displayed an IC50 of no more than 1 nM. For the same molecule, the “Kinase specificty: S(10)-386 panel” value in assay [5] is listed as “A (A≦0.1)”.
